Results from article PMC11219871, “Epigenetic-based differentiation therapy for Acute Myeloid Leukemia” (Nature Communications, 2024).
Values joined by “and” are separate entries in the source; they are usually repeats but may differ in a detail not shown here. Equal entries are not always repeated.

Experiments:
Format in all cases: cell-based, human
[1] = test system: HL-60; test: Differentiation-apoptosis assay, CD11b / annexin-V / Sytox Green / myeloid markers flow cytometry; set-up: CD11b levels: unit not given here; conditions: for Annexin V (%) Replicate 1 / Annexin V (%) Replicate 2 / Annexin V (%) Replicate 3 / CD11b (%) Replicate 1 / CD11b (%) Replicate 2 / CD11b (%) Replicate 3: HL-60, daily 25% GI50, 48 h
Description: Next, the cells were washed twice with phosphate-buffered saline (PBS) and resuspended in 1X Binding Buffer at a concentration of 1 × 10^6 cells/mL. […] Finally, after the addition of 400 µL of 1X Binding Buffer to each tube, samples were collected on a BD FACSCanto flow cytometer (Becton Dickinson, San Jose, CA, USA) and analyzed using FlowJo software.
Then, 1 million cells (volume of 250 µL) were added and incubated for 30 min at room temperature in darkness. After 10 min incubation at room temperature with 2 mL of FACSLysing 1X, cells were centrifuged at 540 g for 5 min and washed twice with FACSBuffer. Finally, after centrifugation at 540 g for 5 min cells were resuspended in FACSBuffer.

[2] = test system: LINE-1 DNA methylation in HL-60; test: LINE-1 pyrosequencing; conditions: HL-60, 10 days
Description: (§1) DNA methylation of the repetitive element LINE-1 was analyzed using a pyrosequencing technique. […] Cells were washed twice with PBS, and then genomic DNA was extracted using a DNA Kit (Nucleo Spin Tissue, Cat No 74095250, Macherey-Nagel) following the manufacturer's instructions. DNA purity and concentration were measured using a NanoDrop spectrophotometer (Thermo Scientific). A 1 μg amount of genomic DNA was treated and modified using a CpGenome DNA modification Kit (Cat No S7820, Chemicon International) following the manufacturer's instructions. […] [NT]) in a final volume of 25 μL. The resulting biotinylated PCR products were immobilized to Streptavidin Sepharose ® High-Performance beads (GE Healthcare) and processed to yield high-quality ssDNA using the PyroMark Vacuum Prep Workstation (Biotage) according to the manufacturer's instructions. The pyrosequencing reactions were performed using the PyromarkTM ID (Biotage), and sequence analysis was performed using the PyroQ-CpG analysis software (Biotage).

[3] = test system: LINE-1 DNA methylation in ML-2; test: LINE-1 pyrosequencing; conditions: ML-2, 10 days
Description: as §1

[4] = test system: LINE-1 DNA methylation in MOLM-13; test: LINE-1 pyrosequencing; conditions: MOLM-13, 5 days
Description: as §1

[5] = test system: LINE-1 DNA methylation in MV4-11; test: LINE-1 pyrosequencing; conditions: MV4-11, 5 days
Description: as §1

[6] = test system: ML-2; test: Differentiation-apoptosis assay, CD11b / annexin-V / Sytox Green / myeloid markers flow cytometry; set-up: CD11b levels: unit not given here; conditions: ML-2 treated daily for 48 h; replicates (Fig 6E)
Description: (§2) Next, the cells were washed twice with phosphate-buffered saline (PBS) and resuspended in 1X Binding Buffer at a concentration of 1 × 10^6 cells/mL. An 8-µL aliquot of APC-CD11b (BD Pharmingen, Franklin Lakes, NJ, USA) and 1 µL of FITC annexin-V (AV) (BD Pharmingen, Franklin Lakes, NJ, USA) antibodies were added and incubated for 15 min at room temperature in the dark. Finally, after the addition of 400 µL of 1X Binding Buffer to each tube, samples were collected on a BD FACSCanto flow cytometer (Becton Dickinson, San Jose, CA, USA) and analyzed using FlowJo software.
(§3) For the rest of experiments, the mix of antibodies (2 µL of BV786-CD13, Cat No, 744748 BD; 1 µL of diluted 1:10 antibody of PB-HLADR, Cat No 307633, Biolegend; 5 µL of APCH7-CD14, Cat No 641394, BD) was added to 10 µL of Brilliant Stain Buffer Plus (Becton Dickinson, San Jose, CA, USA). Then, 1 million cells (volume of 250 µL) were added and incubated for 30 min at room temperature in darkness. After 10 min incubation at room temperature with 2 mL of FACSLysing 1X, cells were centrifuged at 540 g for 5 min and washed twice with FACSBuffer. Finally, after centrifugation at 540 g for 5 min cells were resuspended in FACSBuffer.

[7] = test system: MOLM-13; test: as above; set-up: CD11b levels: unit not given here; conditions: MOLM-13, daily treatment for 48 h, replicates 1-3 (Suppl. Fig. 9A)
Description: as §2, §3

[8] = test system: MV4-11; test: as above; set-up: CD11b levels: unit not given here; conditions: MV4-11, daily treatment for 48 h, replicates 1-3 (Suppl. Fig. 9A)
Description: as §2, §3

COc1cc2c(cc1OCCCN1CCCC1)N=C(N)C21CCC1 [Compound A-366, A-366, reference compound]
Annexin V (%) Replicate 1 [1]: 1.45% | Annexin V (%) Replicate 2 [1]: 1.05% | Annexin V (%) Replicate 3 [1]: 1.10% | CD11b (%) Replicate 1 [1]: 9.70% | CD11b (%) Replicate 2 [1]: 5.40% | CD11b (%) Replicate 3 [1]: 4.85%

CCCc1nn(C)c2c(=O)[nH]c(-c3cc(S(=O)(=O)N4CCN(C)CC4)ccc3OCC)nc12 [Sildenafil, reference compound]
Annexin V (%) Replicate 1 [1]: 0.22% | Annexin V (%) Replicate 2 [1]: 0.14% | Annexin V (%) Replicate 3 [1]: 0.18% | CD11b (%) Replicate 1 [1]: 0.00% | CD11b (%) Replicate 2 [1]: 4.74% | CD11b (%) Replicate 3 [1]: 4.47%

Nc1ncn([C@H]2C[C@H](O)[C@@H](CO)O2)c(=O)n1 [Decitabine, reference compound]
Annexin V (%) Replicate 1 [1]: 4.10% | Annexin V (%) Replicate 2 [1]: 3.17% | Annexin V (%) Replicate 3 [1]: 2.48% | CD11b (%) Replicate 1 [1]: 7.50% | CD11b (%) Replicate 2 [1]: 9.90% | CD11b (%) Replicate 3 [1]: 9.03% | LINE-1 methylation (%) CG Position 1 [2]: 35% and 39% | LINE-1 methylation (%) CG Position 2 [2]: 32% and 40% | LINE-1 methylation (%) CG Position 3 [2]: 43% and 55% | LINE-1 methylation (%) CG Position 4 [2]: 44% and 52% | LINE-1 methylation (%) CG Position 5 [2]: 33% and 37% | LINE-1 methylation (%) CG Position 1 [3]: 36% and 34% | LINE-1 methylation (%) CG Position 2 [3]: 39% and 33% | LINE-1 methylation (%) CG Position 3 [3]: 42% | LINE-1 methylation (%) CG Position 4 [3]: 41% and 39% | LINE-1 methylation (%) CG Position 5 [3]: 32% and 28% | LINE-1 methylation (%) CG Position 1 [4]: 36% and 38% | LINE-1 methylation (%) CG Position 2 [4]: 37% and 43% | LINE-1 methylation (%) CG Position 3 [4]: 48% and 46% | LINE-1 methylation (%) CG Position 4 [4]: 46% and 54% | LINE-1 methylation (%) CG Position 5 [4]: 37% and 35% | LINE-1 methylation (%) CG Position 1 [5]: 53% and 47% | LINE-1 methylation (%) CG Position 2 [5]: 50% and 54% | LINE-1 methylation (%) CG Position 3 [5]: 53% and 55% | LINE-1 methylation (%) CG Position 4 [5]: 55% and 53% | LINE-1 methylation (%) CG Position 5 [5]: 43% and 45%

CCNC(=O)C[C@@H]1N=C(c2ccc(Cl)cc2)c2cc(OC)ccc2-n2c(C)nnc21 [Molibresib, reference compound]
CD11b levels ([1]; HL-60 treated daily for 48 h, replicates (Fig 6D)): 14.6 and 15.6 and 12.7 | CD11b levels [6]: 15.1 and 13.2 and 11.7 | CD11b levels [7]: 13.1 and 10.8 and 12.3 | CD11b levels [8]: 12.1 and 15.4 and 13.7
